Results on 55 molecules are retold here after patent publication US7560458B2, “Triazolopyrimidine derivatives as glycogen synthase kinase 3 inhibitors” (Janssen Pharmaceutica, N.V., priority 2003, dated 2009).

In one test the target is GSK3β (Homo sapiens, UniProt P49841). The test is described as follows: GSK3beta assay (SPA, biotinylated phosphorylated CREB peptide, ATP-P33). The note with it: −log IC50 (M); given as ranges (>8; 7-8; <7); read-out: pIC50 (GSK3beta) (converted). The format is biochemical. The method, boiled down:
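Radiometric SPA at room temperature, pH 7.4 Tris/MgCl2/DTT/BSA/glycerol, with 5.7 ng/μl GSK3β, 5 μM biotinylated phospho-CREB peptide, 1 μM ATP plus 33P-ATP for 1 h. Stopped with streptavidin SPA beads, counted after overnight settling; % inhibition versus no-compound control, IC50 from dose-response curve.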

In a further test the target is GSK3alpha (Homo sapiens, UniProt P49840). The test can be described thus: GSK3alpha assay (same as the GSK3beta assay, GSK3alpha 0.25 ng/μl). Format: biochemical. The conditions noted are these: −log IC50 (M); given as ranges (>8; 7-8; <7); read-out: pIC50 (GSK3alpha) (converted). The method, boiled down:
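GSK3α at 0.25 ng/μl phosphorylated 5 μM biotinylated phospho-CREB peptide with 1 μM ATP and 33P-ATP for 1 h at room temperature, in 25 mM Tris pH 7.4 with 10 mM MgCl2 and 1 mM DTT. Phosphorylated peptide was captured on streptavidin SPA beads and counted. IC50 was taken from dose-response curves.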

Sequence of GSK3β (P49841 whole entry, species assumed): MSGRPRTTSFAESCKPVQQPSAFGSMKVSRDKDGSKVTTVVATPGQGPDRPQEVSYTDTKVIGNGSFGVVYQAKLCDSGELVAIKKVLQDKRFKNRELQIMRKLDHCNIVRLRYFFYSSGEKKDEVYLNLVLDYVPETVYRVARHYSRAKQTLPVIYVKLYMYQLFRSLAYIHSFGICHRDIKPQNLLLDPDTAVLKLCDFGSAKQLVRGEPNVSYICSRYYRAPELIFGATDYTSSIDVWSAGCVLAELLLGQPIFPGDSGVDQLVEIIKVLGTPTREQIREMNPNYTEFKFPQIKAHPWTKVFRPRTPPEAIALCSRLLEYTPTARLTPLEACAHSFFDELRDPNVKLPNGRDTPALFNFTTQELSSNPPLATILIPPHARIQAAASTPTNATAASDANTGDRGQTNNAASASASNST
Sequence of GSK3alpha (P49840 whole entry, species assumed): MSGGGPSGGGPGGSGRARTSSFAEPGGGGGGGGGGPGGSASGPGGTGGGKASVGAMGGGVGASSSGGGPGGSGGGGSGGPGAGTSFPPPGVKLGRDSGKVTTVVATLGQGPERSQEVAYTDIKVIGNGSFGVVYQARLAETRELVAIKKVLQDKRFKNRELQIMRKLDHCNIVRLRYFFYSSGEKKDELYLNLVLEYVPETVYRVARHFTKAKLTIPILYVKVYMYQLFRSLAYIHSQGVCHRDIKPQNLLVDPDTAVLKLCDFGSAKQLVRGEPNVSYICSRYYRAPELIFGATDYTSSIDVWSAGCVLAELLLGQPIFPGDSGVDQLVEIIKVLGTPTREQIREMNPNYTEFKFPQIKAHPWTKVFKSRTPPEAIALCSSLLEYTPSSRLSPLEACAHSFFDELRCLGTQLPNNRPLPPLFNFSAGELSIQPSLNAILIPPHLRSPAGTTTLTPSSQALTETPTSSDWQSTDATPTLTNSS

Take `NC(=O)c1cccc(-n2nnc3cnc(Nc4ccc(C(=O)O)cc4)nc32)c1` [Compound 228]: the IC50 on GSK3β and at GSK3alpha was under 1e-08 M each time.

On to `N#Cc1ccc(Nc2ncc3nnn(-c4cccc(C(=O)NCCO)c4)c3n2)cc1` [Compound 229], for which the IC50 at GSK3β and at GSK3alpha was under 1e-08 M each time.

For `CS(=O)(=O)Nc1cccc(Nc2ncc3nnn(-c4cccc(CNC(=O)C56CC7CC(CC(C7)C5)C6)c4)c3n2)c1` [Compound 235], the values for the IC50 at GSK3β and on GSK3alpha were 1e-08 to 1e-07 M and under 1e-08 M, respectively.

Take `NC(=O)c1ccc(Nc2ncc3nnn(-c4cccc(CNC(=O)C56CC7CC(CC(C7)C5)C6)c4)c3n2)cc1` [Compound 237]: the results for the IC50 on GSK3β and at GSK3alpha were 1e-08 to 1e-07 M and 1e-08 M, respectively.

Turning to `O=C(O)CNC(=O)c1ccc(Nc2ncc3nnn(-c4cccc(CNC(=O)C56CC7CC(CC(C7)C5)C6)c4)c3n2)cc1` [Compound 238], the IC50 at GSK3β and at GSK3alpha was under 1e-08 M each time.

`O=C(O)c1ccc(Nc2ncc3nnn(-c4cccc(CNC(=O)C56CC7CC(CC(C7)C5)C6)c4)c3n2)cc1` [Compound 239]: the IC50 is 1e-08 to 1e-07 M on GSK3β and 1e-08 M on GSK3alpha.

`O=C(O)Cc1ccc(Nc2ncc3nnn(-c4cccc(CNC(=O)C56CC7CC(CC(C7)C5)C6)c4)c3n2)cc1` [Compound 240]: the IC50 on GSK3β and at GSK3alpha was 1e-08 to 1e-07 M in each case.

For `O=C(NCc1cccc(-n2nnc3cnc(Nc4ccc(CCO)cc4)nc32)c1)C12CC3CC(CC(C3)C1)C2` [Compound 241], the IC50 on GSK3β and at GSK3alpha was 1e-08 to 1e-07 M in each case.

For the molecule `NS(=O)(=O)c1ccc(Nc2ncc3nnn(-c4cccc(CNC(=O)C56CC7CC(CC(C7)C5)C6)c4)c3n2)cc1` [Compound 243], the IC50 on GSK3β and at GSK3alpha was 1e-08 to 1e-07 M in each case.

Regarding `COc1cccc(-n2nnc3cnc(Nc4ccc(C(=O)O)cc4)nc32)c1` [Compound 246], the IC50 at GSK3β and on GSK3alpha was under 1e-08 M each time.

As to `O=C(O)c1ccc(Nc2ncc3nnn(-c4cccc(C(=O)NCCO)c4)c3n2)cc1` [Compound 247], the IC50 on GSK3β is 1e-08 to 1e-07 M; on GSK3alpha it was under 1e-08 M.

`CC(=O)NCc1cccc(-n2nnc3cnc(Nc4ccc(S(N)(=O)=O)cc4)nc32)c1` [Compound 248]: the IC50 on GSK3β and on GSK3alpha was under 1e-08 M each time.

`COCc1cccc(-n2nnc3cnc(Nc4ccc(C(=O)O)c(C)c4)nc32)c1` [Compound 249]: the IC50 at GSK3β and at GSK3alpha was under 1e-08 M each time.

For the molecule `NC(=O)Cc1cccc(-n2nnc3cnc(Nc4ccc(F)cc4)nc32)c1` [Compound 254], the IC50 on GSK3β and on GSK3alpha was under 1e-08 M each time.

Take `CCOc1cc(Nc2ncc3nnn(-c4cccc(CCO)c4)c3n2)ccc1C(=O)O` [Compound 255]: the IC50 on GSK3β and at GSK3alpha was under 1e-08 M throughout.

Turning to `CS(=O)(=O)Nc1cccc(Nc2ncc3nnn(-c4cccc(CCO)c4)c3n2)c1` [Compound 256], the IC50 on GSK3β and on GSK3alpha was under 1e-08 M throughout.

Regarding `O=C(O)c1ccc(Nc2ncc3nnn(-c4cccc(CCO)c4)c3n2)cc1` [Compound 257], the IC50 on GSK3β and on GSK3alpha was under 1e-08 M in each case.

On to `N#Cc1cccc(Nc2ncc3nnn(-c4cccc(CCO)c4)c3n2)c1` [Compound 258], for which the IC50 on GSK3β and at GSK3alpha was under 1e-08 M throughout.

On to `NC(=O)c1ccc(Nc2ncc3nnn(-c4cccc(CCO)c4)c3n2)cc1` [Compound 259], for which the IC50 on GSK3β and at GSK3alpha was under 1e-08 M in each case.

Consider `OCCc1ccc(Nc2ncc3nnn(-c4cccc(CCO)c4)c3n2)cc1` [Compound 260], for which the IC50 on GSK3β and on GSK3alpha was under 1e-08 M in each case.

`OCCc1cccc(-n2nnc3cnc(Nc4ccc(F)cc4)nc32)c1` [Compound 261]: the IC50 at GSK3β and on GSK3alpha was under 1e-08 M each time.

For the molecule `COCCOc1cccc(Nc2ncc3nnn(-c4cccc(CCO)c4)c3n2)c1` [Compound 262], the IC50 at GSK3β and at GSK3alpha was under 1e-08 M each time.

`CS(=O)(=O)Nc1cccc(Nc2ncc3nnn(-c4cccc(CC#N)c4)c3n2)c1` [Compound 264]: the IC50 at GSK3β and on GSK3alpha was under 1e-08 M throughout.

For the molecule `N#CCc1cccc(-n2nnc3cnc(Nc4ccc(F)cc4)nc32)c1` [Compound 265], the IC50 at GSK3β and on GSK3alpha was under 1e-08 M throughout.

Turning to `COCc1cccc(Nc2ncc3nnn(-c4cccc(CC#N)c4)c3n2)c1` [Compound 266], the IC50 on GSK3β and at GSK3alpha was under 1e-08 M throughout.

For the molecule `COc1ccc(Nc2ncc3nnn(-c4cccc(CC#N)c4)c3n2)cn1` [Compound 267], the IC50 on GSK3β and on GSK3alpha was under 1e-08 M throughout.

Take `N#CCc1cccc(-n2nnc3cnc(Nc4ccc(CCO)cc4)nc32)c1` [Compound 268]: the IC50 on GSK3β and on GSK3alpha was under 1e-08 M in each case.

In the case of `COC(=O)c1cc(Nc2ncc3nnn(-c4cccc(CC#N)c4)c3n2)ccc1NC(C)=O` [Compound 269], the IC50 at GSK3β and on GSK3alpha was under 1e-08 M throughout.

For `CC(C)(C)OC(=O)NCc1cccc(-n2nnc3cnc(Nc4ccc(F)cc4)nc32)c1` [Compound 270], the IC50 at GSK3β and on GSK3alpha was under 1e-08 M in each case.

`NC(=O)Cc1cccc(-n2nnc3cnc(Nc4cccc(C(=O)NCCO)c4)nc32)c1` [Compound 271]: the IC50 on GSK3β and at GSK3alpha was under 1e-08 M throughout.

For the molecule `N#CCc1cccc(-n2nnc3cnc(Nc4cccc(C#N)c4)nc32)c1` [Compound 272], the IC50 at GSK3β and at GSK3alpha was under 1e-08 M in each case.

Regarding `CS(=O)(=O)Nc1cccc(Nc2ncc3nnn(-c4cccc(CC(N)=O)c4)c3n2)c1` [Compound 273], the IC50 at GSK3β and on GSK3alpha was under 1e-08 M each time.

With `N#CCc1cccc(-n2nnc3cnc(Nc4ccc(C(N)=O)cc4)nc32)c1` [Compound 274], the IC50 at GSK3β and on GSK3alpha was under 1e-08 M in each case.

Regarding `N#CCc1cccc(-n2nnc3cnc(Nc4cccc(C(=O)NCCO)c4)nc32)c1` [Compound 275], the IC50 at GSK3β and on GSK3alpha was under 1e-08 M in each case.

Turning to `N#CCc1cccc(-n2nnc3cnc(Nc4cccc(CCO)c4)nc32)c1` [Compound 276], the IC50 at GSK3β and on GSK3alpha was under 1e-08 M throughout.

Take `N#CCc1cccc(-n2nnc3cnc(Nc4cccc(CO)c4)nc32)c1` [Compound 277]: the IC50 at GSK3β and at GSK3alpha was under 1e-08 M throughout.

For the molecule `CC(O)c1cccc(Nc2ncc3nnn(-c4cccc(CC#N)c4)c3n2)c1` (centres unmarked) [Compound 278], the IC50 at GSK3β and at GSK3alpha was under 1e-08 M in each case.

On to `NCc1cccc(-n2nnc3cnc(Nc4ccc(F)cc4)nc32)c1` [Compound 279], for which the IC50 on GSK3β and at GSK3alpha was 1e-08 to 1e-07 M in each case.

As for `N#Cc1ccc(Nc2ncc3nnn(-c4cccc(CCO)c4)c3n2)cc1` [Compound 285], the IC50 on GSK3β and at GSK3alpha was under 1e-08 M throughout.

For `COCCOCc1cccc(-n2nnc3cnc(Nc4ccc(C(N)=O)cc4)nc32)c1` [Compound 286], the IC50 at GSK3β and on GSK3alpha was under 1e-08 M each time.

Take `COCCOCc1cccc(-n2nnc3cnc(Nc4ccc(CCO)cc4)nc32)c1` [Compound 289]: the IC50 at GSK3β and on GSK3alpha was under 1e-08 M each time.

For `OCCc1ccc(-n2nnc3cnc(Nc4ccc(F)cc4)nc32)cc1` [Compound 291], the figures for the IC50 on GSK3β and on GSK3alpha were 1e-08 to 1e-07 M and under 1e-08 M, respectively.

As for `OCCc1ccc(Nc2ncc3nnn(-c4ccc(CCO)cc4)c3n2)cc1` [Compound 293], the values for the IC50 on GSK3β and at GSK3alpha were over 1e-07 M and under 1e-08 M, respectively.

On to `CC(C)(C)OC(=O)NCc1ccc(Nc2ncc3nnn(-c4cccc(F)c4)c3n2)cc1` [Compound 294], for which the IC50 at GSK3β and on GSK3alpha was under 1e-08 M throughout.

For the molecule `NCc1ccc(Nc2ncc3nnn(-c4cccc(F)c4)c3n2)cc1` [Compound 295], the IC50 at GSK3β is 1e-08 M; on GSK3alpha, under 1e-08 M.

Take `CN(C)CCOc1ccc(Nc2ncc3nnn(-c4cccc(F)c4)c3n2)cc1` [Compound 296]: the IC50 on GSK3β and at GSK3alpha was 1e-08 to 1e-07 M throughout.

On to `COCCOc1cccc(-n2nnc3cnc(Nc4ccc(F)cc4)nc32)c1` [Compound 301], for which the results for the IC50 on GSK3β and on GSK3alpha were 1e-08 to 1e-07 M and under 1e-08 M, respectively.

As for `COCCOc1cccc(-n2nnc3cnc(Nc4ccc(CNC(=O)OC(C)(C)C)cc4)nc32)c1` [Compound 302], the IC50 is 1e-08 to 1e-07 M on GSK3β and under 1e-08 M at GSK3alpha.

As to `COCCOc1cccc(-n2nnc3cnc(Nc4cccc(CNC(=O)OC(C)(C)C)c4)nc32)c1` [Compound 303], the IC50 is 1e-08 to 1e-07 M on GSK3β and under 1e-08 M on GSK3alpha.

As for `COCc1cccc(-n2nnc3cnc(Nc4ccc(C(=O)O)c(OC)c4)nc32)c1` [Compound 304], the IC50 at GSK3β and on GSK3alpha was under 1e-08 M each time.

For `COCCOc1cccc(-n2nnc3cnc(Nc4ccc(CN)cc4)nc32)c1` [Compound 305], the values for the IC50 at GSK3β and at GSK3alpha were 1e-08 to 1e-07 M and under 1e-08 M, respectively.

Consider `Fc1cccc(-n2nnc3cnc(Nc4ccc(CNCC(F)(F)F)cc4)nc32)c1` [Compound 306], for which the IC50 at GSK3β and on GSK3alpha was under 1e-08 M each time.

Take `NC(=O)c1ccc(Nc2ncc3nnn(-c4cccc(F)c4)c3n2)cc1` [Compound 307]: the IC50 at GSK3β and on GSK3alpha was under 1e-08 M each time.

Take `CNC(=O)c1ccc(Nc2ncc3nnn(-c4cccc(F)c4)c3n2)cc1` [Compound 308]: the IC50 at GSK3β and on GSK3alpha was under 1e-08 M in each case.

As for `CN(C)C(=O)c1ccc(Nc2ncc3nnn(-c4cccc(F)c4)c3n2)cc1` [Compound 309], the IC50 on GSK3β and on GSK3alpha was under 1e-08 M each time.
